{"source": "ChEMBL document CHEMBL4402605", "about": "“A Chemical Switch for Transforming a Purine Agonist for Toll-like Receptor 7 to a Clinically Relevant Antagonist” (J Med Chem, 2020)", "key": {"[1]": {"biological_target": "T1, Toll-like receptor 7 (Homo sapiens) (UniProt Q9NYK1)", "T1 sequence (whole entry)": "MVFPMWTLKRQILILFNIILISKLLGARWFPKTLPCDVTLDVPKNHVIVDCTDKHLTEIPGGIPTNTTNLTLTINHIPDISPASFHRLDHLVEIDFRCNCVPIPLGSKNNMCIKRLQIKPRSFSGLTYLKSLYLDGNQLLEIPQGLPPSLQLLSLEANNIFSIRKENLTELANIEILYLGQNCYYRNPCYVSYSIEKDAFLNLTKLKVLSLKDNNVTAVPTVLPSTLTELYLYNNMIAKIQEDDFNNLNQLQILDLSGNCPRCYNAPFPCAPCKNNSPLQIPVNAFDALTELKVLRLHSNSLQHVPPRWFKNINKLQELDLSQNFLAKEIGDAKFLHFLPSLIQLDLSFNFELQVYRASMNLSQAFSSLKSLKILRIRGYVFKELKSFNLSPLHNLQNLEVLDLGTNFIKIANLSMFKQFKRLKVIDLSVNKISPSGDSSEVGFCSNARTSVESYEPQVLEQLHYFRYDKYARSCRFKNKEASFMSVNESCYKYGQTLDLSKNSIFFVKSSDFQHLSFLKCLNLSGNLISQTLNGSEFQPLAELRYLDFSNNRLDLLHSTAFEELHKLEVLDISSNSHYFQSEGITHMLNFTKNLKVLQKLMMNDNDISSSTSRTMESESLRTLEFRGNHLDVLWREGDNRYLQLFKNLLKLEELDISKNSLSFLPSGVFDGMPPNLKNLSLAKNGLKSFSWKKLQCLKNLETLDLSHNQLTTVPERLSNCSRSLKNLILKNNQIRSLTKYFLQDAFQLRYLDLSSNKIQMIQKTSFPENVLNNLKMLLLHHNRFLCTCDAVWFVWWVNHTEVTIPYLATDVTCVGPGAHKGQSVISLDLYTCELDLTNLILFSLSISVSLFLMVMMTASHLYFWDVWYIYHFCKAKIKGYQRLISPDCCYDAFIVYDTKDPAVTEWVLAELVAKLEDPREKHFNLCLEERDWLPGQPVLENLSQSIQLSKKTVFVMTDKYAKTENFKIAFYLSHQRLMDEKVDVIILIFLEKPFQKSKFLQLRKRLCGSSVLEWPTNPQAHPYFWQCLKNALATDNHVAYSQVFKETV", "assay": "Antagonist activity at TLR7 in human PBMC assessed as inhibition of gardiquimod-induced TNFalpha production at 5 uM preincubated for 1 hr followed by gardiquimod stimulation and measured after overnight incubation by ELISA"}, "[2]": {"assay": "Apparent permeability across apical to basal side in human Caco2 cells at 10 uM measured after 120 mins by LC-MS/MS analysis", "conditions": "Caco-2"}, "[3]": {"assay": "Efflux ratio of apparent permeability across basal to apical side over apical to basal side in human Caco2 cells at 10 uM measured after 120 mins by LC-MS/MS analysis", "conditions": "Caco-2"}, "[4]": {"assay": "Half life in human liver microsomes at 100 uM by LC-MS/MS analysis"}, "[5]": {"assay": "Clearance in mouse liver microsomes at 100 uM by LC-MS/MS analysis relative to hepatic blood flow"}, "[6]": {"assay": "AUC (0 to 24 hrs) in C57BL/6 mouse at 15 mg/kg, po administered via gavage by LC-MS/MS analysis", "assay_type": "ADME, organism-based", "set-up": "time < 24 hr, dose 15 mg/kg, route oral", "conditions": "in vivo"}, "Mus musculus [7]": {"test_system": "Mus musculus", "assay": "(§1) Protection against imiquimod-induced C57BL/6 mouse model of psoriasis assessed as suppression of hyperkeratosis at 15 mg/kg, po administered via gavage treated 1 day prior to imiquimod application and subsequent daily dosing for 7 consecutive days and measured post-last dose by H and E staining based histopathological analysis", "assay_type": "functional"}, "Mus musculus [8]": {"test_system": "Mus musculus", "assay": "as §1, with “parakeratosis” for “hyperkeratosis”", "assay_type": "functional"}, "Mus musculus [9]": {"test_system": "Mus musculus", "assay": "as §1, with “spongiosis” for “hyperkeratosis”", "assay_type": "functional"}, "Mus musculus [10]": {"test_system": "Mus musculus", "assay": "as §1, with “suprapapillary thinning” for “hyperkeratosis”", "assay_type": "functional"}, "Mus musculus [11]": {"test_system": "Mus musculus", "assay": "as §1, with “pustule formation” for “hyperkeratosis”", "assay_type": "functional"}, "Mus musculus [12]": {"test_system": "Mus musculus", "assay": "as §1, with “reduction in TNFalpha mRNA expression” for “suppression of hyperkeratosis”, “SYBR green dye” for “H and E staining”, “qPCR” for “histopathological”", "assay_type": "functional, organism-based"}, "Mus musculus [13]": {"test_system": "Mus musculus", "assay": "as §1, with “reduction in MX1 mRNA expression” for “suppression of hyperkeratosis”, “SYBR green dye” for “H and E staining”, “qPCR” for “histopathological”", "assay_type": "functional, organism-based"}, "Mus musculus [14]": {"test_system": "Mus musculus", "assay": "as §1, with “reduction in MX2 mRNA expression” for “suppression of hyperkeratosis”, “SYBR green dye” for “H and E staining”, “qPCR” for “histopathological”", "assay_type": "functional, organism-based"}, "[15]": {"assay": "Toxicity in C57BL/6 mouse assessed as change in hepatocyte survival at 15 mg/kg, po administered once daily via gavage for 7 consecutive days and measured post-last dose by H and E staining based histomorphological analysis", "assay_type": "organism-based", "conditions": "in vivo"}, "[16]": {"assay": "Toxicity in C57BL/6 mouse assessed as liver fatty infiltration at 15 mg/kg, po administered once daily via gavage for 7 consecutive days and measured post-last dose by H and E staining based histomorphological analysis", "assay_type": "organism-based", "conditions": "in vivo"}, "[17]": {"assay": "Toxicity in C57BL/6 mouse assessed as liver inflammation at 15 mg/kg, po administered once daily via gavage for 7 consecutive days and measured post-last dose by H and E staining based histomorphological analysis", "assay_type": "organism-based", "conditions": "in vivo"}, "[18]": {"assay": "Toxicity in C57BL/6 mouse assessed as lung immune infiltration at 15 mg/kg, po administered once daily via gavage for 7 consecutive days and measured post-last dose by H and E staining based histomorphological analysis", "assay_type": "organism-based", "conditions": "in vivo"}, "[19]": {"assay": "Toxicity in C57BL/6 mouse assessed as glomerular hypertrophy at 15 mg/kg, po administered once daily via gavage for 7 consecutive days and measured post-last dose by H and E staining based histomorphological analysis", "assay_type": "organism-based", "conditions": "in vivo"}, "[20]": {"assay": "Toxicity in C57BL/6 mouse assessed as capsular space obliteration at 15 mg/kg, po administered once daily via gavage for 7 consecutive days and measured post-last dose by H and E staining based histomorphological analysis", "assay_type": "organism-based", "conditions": "in vivo"}, "[21]": {"assay": "Toxicity in C57BL/6 mouse assessed as inflammation of kidney at 15 mg/kg, po administered once daily via gavage for 7 consecutive days and measured post-last dose by H and E staining based histomorphological analysis", "assay_type": "organism-based", "conditions": "in vivo"}, "[22]": {"assay": "Toxicity in C57BL/6 mouse assessed as behavioral changes at 15 mg/kg, po administered once daily via gavage for 7 consecutive days and measured post-last dose by H and E staining based histomorphological analysis", "assay_type": "organism-based", "conditions": "in vivo"}, "[23]": {"assay": "Toxicity in C57BL/6 mouse assessed as physiological abnormalities at 15 mg/kg, po administered once daily via gavage for 7 consecutive days and measured post-last dose by H and E staining based histomorphological analysis", "assay_type": "organism-based", "conditions": "in vivo"}, "Toll-like receptor 7": {"biological_target": "T2, Toll-like receptor 7 (Homo sapiens, UniProt Q9NYK1)", "T2 sequence (Q9NYK1 whole entry)": "T1 sequence (whole entry)", "description": "Antagonist activity at human TLR7 expressed in HEK-Blue cells assessed as inhibition of CL264-induced NFkappaB activation by measuring reduction in SEAP level after overnight incubation using qunati-blue reagent by SEAP reporter gene-based spectrophotometric method"}, "physchem": {"assay": "physchem", "conditions": "phosphate buffer, pH 7.4", "description": "Aqueous solubility of the compound in pH 7.4 0.25 M phosphate buffer at 500 uM incubated for 18 hrs under stirred condition by UV-HPLC analysis"}, "in vitro": {"assay": "in vitro", "conditions": "human, plasma", "description": "Stability of the compound in human plasma assessed as parent compound remaining at 25 uM measured after 2 hrs by LC-MS/MS analysis"}}, "note": "Calls of active or inactive are those of the source. The rule behind the calls is not given here."}
{"smiles": "CCN1CCN(CCCn2cnc3c(N4CCN(CC)CC4)ncnc32)CC1", "values": [{"measurement": "inhibition", "setting": "[1]", "value": "Active"}, {"measurement": "Papp A→B at 2 h, 10 µM", "setting": "[2]", "value": 3.57, "unit": "×10⁻⁶ cm/s"}, {"measurement": "efflux ratio at 2 h, 10 µM", "setting": "[3]", "value": 2.6}, {"measurement": "half-life at 100 µM", "setting": "[4]", "value": 1.5, "unit": "h"}, {"measurement": "hepatic extraction ratio at 100 µM", "setting": "[5]", "value": 0.144}, {"measurement": "AUC(0-t) at 24 h", "setting": "[6]", "value": 36100, "unit": "ng·h/mL"}, {"measurement": "Activity", "setting": "Mus musculus [7]", "value": 100, "unit": "%"}, {"measurement": "Activity", "setting": "Mus musculus [8]", "value": 100, "unit": "%"}, {"measurement": "Activity", "setting": "Mus musculus [9]", "value": 100, "unit": "%"}, {"measurement": "Activity", "setting": "Mus musculus [10]", "value": 100, "unit": "%"}, {"measurement": "Activity", "setting": "Mus musculus [11]", "value": 100, "unit": "%"}, {"measurement": "Activity", "setting": "Mus musculus [12]", "value": "Active"}, {"measurement": "Activity", "setting": "Mus musculus [13]", "value": "Active"}, {"measurement": "Activity", "setting": "Mus musculus [14]", "value": "Active"}, {"measurement": "Activity", "setting": "[15]", "value": "Non-Toxic"}, {"measurement": "Activity", "setting": "[16]", "value": "Non-Toxic"}, {"measurement": "Activity", "setting": "[17]", "value": "Non-Toxic"}, {"measurement": "Activity", "setting": "[18]", "value": "Non-Toxic"}, {"measurement": "Activity", "setting": "[19]", "value": "Non-Toxic"}, {"measurement": "Activity", "setting": "[20]", "value": "Non-Toxic"}, {"measurement": "Activity", "setting": "[21]", "value": "Non-Toxic"}, {"measurement": "Activity", "setting": "[22]", "value": "Non-Toxic"}, {"measurement": "Activity", "setting": "[23]", "value": "Non-Toxic"}, {"measurement": "IC50", "setting": "Toll-like receptor 7", "value": 4.7, "unit": "µM"}, {"measurement": "solubility at 18 h, 500 µM", "setting": "physchem", "value": 200, "unit": "µg/mL"}, {"measurement": "remaining at 2 h, 25 µM", "setting": "in vitro", "value": 95, "unit": "%"}]}
